The record followed here is article PMC11169512, “Structural basis for urate recognition and apigenin inhibition of human GLUT9” (Nature Communications, 2024).

What all share (type): binding
The target of assay [1] is T1, GLUT9 (Homo sapiens, UniProt Q9NRM0).
T1 construct: gene SLC2A9; full length human SLC2A9, N-terminal twin strep and FLAG tag
T1 sequence (Q9NRM0 1-540): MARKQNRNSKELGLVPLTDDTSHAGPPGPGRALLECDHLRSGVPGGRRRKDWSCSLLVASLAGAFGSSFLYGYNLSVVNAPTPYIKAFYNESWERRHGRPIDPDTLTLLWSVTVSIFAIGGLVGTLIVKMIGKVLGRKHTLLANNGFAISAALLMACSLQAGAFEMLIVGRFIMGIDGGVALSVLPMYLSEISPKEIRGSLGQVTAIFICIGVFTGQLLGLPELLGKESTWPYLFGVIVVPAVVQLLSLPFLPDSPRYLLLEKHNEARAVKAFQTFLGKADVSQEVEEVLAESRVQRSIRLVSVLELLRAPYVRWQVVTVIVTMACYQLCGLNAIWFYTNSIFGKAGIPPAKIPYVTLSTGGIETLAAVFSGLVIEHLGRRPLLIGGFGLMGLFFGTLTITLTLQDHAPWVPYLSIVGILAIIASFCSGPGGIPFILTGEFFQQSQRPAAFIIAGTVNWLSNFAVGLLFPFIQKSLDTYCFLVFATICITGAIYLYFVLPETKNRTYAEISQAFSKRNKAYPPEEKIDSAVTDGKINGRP
Put plainly: cryo-EM structure ([…] Å), MST Kd; patch clamp IC50 […]. Background: The patch-clamp technique gives a direct electrical read-out from membranes.

Assay [2] addresses T2, GLUT9 (Homo sapiens, UniProt Q9NRM0, N458A).
T2 construct: gene SLC2A9; full length human SLC2A9, N-terminal twin strep and FLAG tag
T2 sequence (Q9NRM0 1-540 N458A): T1 sequence (Q9NRM0 1-540) with N458A
Put plainly: MST with purified protein.

The target of assay [3] is T3, GLUT9 (Homo sapiens, UniProt Q9NRM0, W336A).
T3 construct: gene SLC2A9; full length human SLC2A9, N-terminal twin strep and FLAG tag
T3 sequence (Q9NRM0 1-540 W336A): T1 sequence (Q9NRM0 1-540) with W336A
Put plainly: MST with purified protein.

Assay [4] has as its target T4, GLUT9 (Homo sapiens, UniProt Q9NRM0, C427A).
T4 construct: gene SLC2A9; full length human SLC2A9, N-terminal twin strep and FLAG tag
T4 sequence (Q9NRM0 1-540 C427A): T1 sequence (Q9NRM0 1-540) with C427A
Put plainly: MST with purified protein.

The target in assay [5] is T5, GLUT9 (Homo sapiens, UniProt Q9NRM0, Y327A).
T5 construct: gene SLC2A9; full length human SLC2A9, N-terminal twin strep and FLAG tag
T5 sequence (Q9NRM0 1-540 Y327A): T1 sequence (Q9NRM0 1-540) with Y327A
Kind of assay: MST with purified protein.

In assay [6] the target is T6, GLUT9 (Homo sapiens, UniProt Q9NRM0, Y327Q).
T6 construct: gene SLC2A9; full length human SLC2A9, N-terminal twin strep and FLAG tag
T6 sequence (Q9NRM0 1-540 Y327Q): T1 sequence (Q9NRM0 1-540) with Y327Q
Put plainly: MST with purified protein.

The target of assay [7] is T7, GLUT9 (Homo sapiens, UniProt Q9NRM0, N333A).
T7 construct: gene SLC2A9; full length human SLC2A9, N-terminal twin strep and FLAG tag
T7 sequence (Q9NRM0 1-540 N333A): T1 sequence (Q9NRM0 1-540) with N333A
Kind of assay: MST with purified protein.

The target in assay [8] is T1, GLUT9. Kind of assay: cryo-EM structure ([…] Å), MST Kd; patch clamp transport current.
Assay [9] addresses T8, GLUT9 (Homo sapiens, UniProt Q9NRM0, W336F).
T8 construct: gene SLC2A9; full length human SLC2A9, N-terminal twin strep and FLAG tag
T8 sequence (Q9NRM0 1-540 W336F): T1 sequence (Q9NRM0 1-540) with W336F
Put plainly: MST with purified protein.

Assay [10] has as its target T9, GLUT9 (Homo sapiens, UniProt Q9NRM0, E364A).
T9 construct: gene SLC2A9; full length human SLC2A9, N-terminal twin strep and FLAG tag
T9 sequence (Q9NRM0 1-540 E364A): T1 sequence (Q9NRM0 1-540) with E364A
Put plainly: MST with purified protein.

Molecules are shown by their SMILES. Numbering of substitutions follows the chain as printed.

Regarding `O=c1cc(-c2ccc(O)cc2)oc2cc(O)cc(O)c12` [API, apigenin], the Kd (commonly the concentration at which binding is half-saturated) at GLUT9 [1] was found to be 0.5 ± 0.1 µM; on GLUT9 [2], 4.1 ± 1.1 µM; on GLUT9 [3], 1.3 ± 0.3 µM; at GLUT9 [4], 1 ± 0.2 µM; at GLUT9 [5], 2.2 ± 0.7 µM.
As for `O=c1[nH]c(=O)c2[nH]c(=O)[nH]c2[nH]1` [UA, urate], the Kd at GLUT9 [6] turned out to be 867 ± 168 µM; at GLUT9 [7], 472 ± 52.2 µM; at GLUT9 [8], 231 ± 17.1 µM; on GLUT9 [9] it was 361 ± 80.3 µM; on GLUT9 [10], 681 ± 126 µM.
